Converted amounts (≈) assume the structure as drawn.
Tests used:
Kl. pneumoniae = test: MIC by Steers' agar dilution method; assay type: cell-based; conditions: Klebsiella pneumoniae
Shig. sonnei = test: MIC by Steers' agar dilution method; assay type: cell-based; conditions: Shigella sonnei, MHA
bacteria of Table 4 = test: Media effect on MIC (Nutrient, Mueller-Hinton, Heart-Infusion agar); assay type: cell-based; conditions: NA, MHA, HIA
S. aureus Smith = test: Standard experimental infection in mice; assay type: in vivo; conditions: Table 6
E. coli Juhl = test: Standard experimental infection in mice; assay type: in vivo; conditions: Table 6
Urinary recovery in rats = assay type: in vivo; conditions: rat, urine, sc 10 mg./kg., 0-24 Hrs.
Pr. vulgaris = test: MIC by Steers' agar dilution method; conditions: Proteus vulgaris
Pr. rettgeri = test: MIC by Steers' agar dilution method; conditions: Providencia rettgeri
Sal. enteritidis = test: MIC by Steers' agar dilution method; conditions: Salmonella enterica
D. pneumoniae = test: MIC by Steers' agar dilution method
P. stuartii = test: MIC by Steers' agar dilution method; conditions: Providencia stuartii
S. paratyphi = test: MIC by Steers' agar dilution method; conditions: Salmonella enterica

## Cn1nnnc1SCC1=C(C(=O)O)N2C(=O)[C@@H](NC(=O)[C@H](O)c3ccccc3)[C@H]2SC1 [Cefamandole, cefamandole, reference compound]
Kl. pneumoniae; A9678, MHA, Table 1
  MIC: 3.1 µg/mL (≈ 6.7 µM)
Kl. pneumoniae; A9867, MHA, Table 1
  MIC: 0.8 µg/mL (≈ 1.73 µM)
Kl. pneumoniae; A9977, MHA, Table 1
  MIC: 0.2 µg/mL (≈ 0.432 µM)
Kl. pneumoniae; A15130, MHA, Table 1
  MIC: 0.8 µg/mL (≈ 1.73 µM)
Kl. pneumoniae; Kp-1 D11, MHA, Table 3
  MIC: 0.8 µg/mL (≈ 1.73 µM)
Kl. pneumoniae; Kp-2 A9678, MHA, Table 3
  MIC: 1.6 µg/mL (≈ 3.46 µM)
Kl. pneumoniae; Kp-3 A9977, HIA, Table 4
  MIC: 0.8 µg/mL (≈ 1.73 µM)
Kl. pneumoniae; Kp-3 A9977, MHA, Table 3
  MIC: 0.8 µg/mL (≈ 1.73 µM)
Kl. pneumoniae; Kp-3 A9977, MHA, Table 4
  MIC: 0.8 µg/mL (≈ 1.73 µM)
Kl. pneumoniae; Kp-3 A9977, NA, Table 4
  MIC: 0.4 µg/mL (≈ 0.865 µM)
Kl. pneumoniae; Kp-4 A15130, HIA, Table 4
  MIC: 0.8 µg/mL (≈ 1.73 µM)
Kl. pneumoniae; Kp-4 A15130, MHA, Table 3
  MIC: 0.8 µg/mL (≈ 1.73 µM)
Kl. pneumoniae; Kp-4 A15130, MHA, Table 4
  MIC: 0.8 µg/mL (≈ 1.73 µM)
Kl. pneumoniae; Kp-4 A15130, NA, Table 4
  MIC: 0.8 µg/mL (≈ 1.73 µM)
Kl. pneumoniae; Kp-7 A9867, MHA, Table 3
  MIC: 0.8 µg/mL (≈ 1.73 µM)
Kl. pneumoniae; Kp-8 A20680, MHA, Table 3
  MIC: 12.5 µg/mL (≈ 27 µM)
Kl. pneumoniae; Kp-9 A20636, MHA, Table 3
  MIC: 12.5 µg/mL (≈ 27 µM)
Kl. pneumoniae; Kp-10 A20328, MHA, Table 3
  MIC: 3.1 µg/mL (≈ 6.7 µM)
Kl. pneumoniae; Kp-11 A20330, MHA, Table 3
  MIC: 12.5 µg/mL (≈ 27 µM)
Kl. pneumoniae; Kp-12 A21228, MHA, Table 3
  MIC: 6.3 µg/mL (≈ 13.6 µM)
Kl. pneumoniae; strain not named (1st of 4), MHA, Example 10
  MIC: 3.1 µg/mL (≈ 6.7 µM)
Kl. pneumoniae; strain not named (2nd of 4), MHA, Example 10
  MIC: 0.8 µg/mL (≈ 1.73 µM)
Kl. pneumoniae; strain not named (3rd of 4), MHA, Example 10
  MIC: 0.8 µg/mL (≈ 1.73 µM)
Kl. pneumoniae; strain not named (4th of 4), MHA, Example 10
  MIC: 0.8 µg/mL (≈ 1.73 µM)
Shig. sonnei; A9516, Table 1
  MIC: 0.05 µg/mL (≈ 0.108 µM)
Shig. sonnei; Example 10
  MIC: 0.2 µg/mL (≈ 0.432 µM)
Shig. sonnei; Ss-1 Yale, Table 3
  MIC: 0.1 µg/mL (≈ 0.216 µM)
Bacteria of Table 4
  Media effect on MIC: little media effect
S. aureus Smith; 0.4 mg./kg.
  No. of survivors/No. tested: 1/5
S. aureus Smith; 1.6 mg./kg.
  No. of survivors/No. tested: 5/5
S. aureus Smith; 6.3 mg./kg.
  No. of survivors/No. tested: 5/5
S. aureus Smith; 25 mg./kg.
  No. of survivors/No. tested: 5/5
S. aureus Smith; Staphylococcus aureus, read-out: PD50
  ED50: 0.6 mg/kg
E. coli Juhl; 0.4 mg./kg.
  No. of survivors/No. tested: 0/5
E. coli Juhl; 1.6 mg./kg.
  No. of survivors/No. tested: 2/5
E. coli Juhl; 6.3 mg./kg.
  No. of survivors/No. tested: 5/5
E. coli Juhl; 25 mg./kg.
  No. of survivors/No. tested: 5/5
E. coli Juhl; Escherichia coli, read-out: PD50
  ED50: 1.8 mg/kg
Urinary recovery in rats
  dose excreted at 24 h: 58.3%
Pr. vulgaris; A9436, MHA, Table 1
  MIC: 0.4 µg/mL (≈ 0.865 µM)
Pr. vulgaris; A9699, MHA, Table 1
  MIC: 6.3 µg/mL (≈ 13.6 µM)
Pr. vulgaris; ATCC9920, Pv-4 ATCC 9920, MHA, Table 3
  MIC: 0.2 µg/mL (≈ 0.432 µM)
Pr. vulgaris; Pv-1 A9436, HIA, Table 4
  MIC: 0.4 µg/mL (≈ 0.865 µM)
Pr. vulgaris; Pv-1 A9436, MHA, Table 3
  MIC: 0.8 µg/mL (≈ 1.73 µM)
Pr. vulgaris; Pv-1 A9436, MHA, Table 4
  MIC: 0.4 µg/mL (≈ 0.865 µM)
Pr. vulgaris; Pv-1 A9436, NA, Table 4
  MIC: 0.2 µg/mL (≈ 0.432 µM)
Pr. vulgaris; Pv-2 A9526, MHA, Table 3
  MIC: 1.6 µg/mL (≈ 3.46 µM)
Pr. vulgaris; Pv-3 A9699 (β-lactamase), HIA, Table 4
  MIC: 100 µg/mL (≈ 216 µM)
Pr. vulgaris; Pv-3 A9699 (β-lactamase), MHA, Table 4
  MIC: 50 µg/mL (≈ 108 µM)
Pr. vulgaris; Pv-3 A9699 (β-lactamase), NA, Table 4
  MIC: 6.3 µg/mL (≈ 13.6 µM)
Pr. vulgaris; Pv-3 A9699, MHA, Table 3
  MIC: 50 µg/mL (≈ 108 µM)
Pr. vulgaris; Pv-5 A9539, MHA, Table 3
  MIC: > 100 µg/mL
Pr. vulgaris; Pv-6 A9716, MHA, Table 3
  MIC: 0.8 µg/mL (≈ 1.73 µM)
Pr. vulgaris; Pv-7 A21240, MHA, Table 3
  MIC: > 100 µg/mL
Pr. vulgaris; strain not given (1st of 2), MHA, Example 10
  MIC: 0.2 µg/mL (≈ 0.432 µM)
Pr. vulgaris; strain not named (2nd of 2), MHA, Example 10
  MIC: 50 µg/mL (≈ 108 µM)
Pr. rettgeri; A15167, MHA, Table 1
  MIC: 0.2 µg/mL (≈ 0.432 µM)
Pr. rettgeri; MHA, Example 10
  MIC: 0.4 µg/mL (≈ 0.865 µM)
Pr. rettgeri; Pr-1 A15167, HIA, Table 4
  MIC: 0.1 µg/mL (≈ 0.216 µM)
Pr. rettgeri; Pr-1 A15167, MHA, Table 3
  MIC: 0.2 µg/mL (≈ 0.432 µM)
Pr. rettgeri; Pr-1 A15167, MHA, Table 4
  MIC: 0.2 µg/mL (≈ 0.432 µM)
Pr. rettgeri; Pr-1 A15167, NA, Table 4
  MIC: 0.2 µg/mL (≈ 0.432 µM)
Pr. rettgeri; Pr-2 A9637, MHA, Table 3
  MIC: 0.1 µg/mL (≈ 0.216 µM)
Pr. rettgeri; Pr-4 A20645, MHA, Table 3
  MIC: 0.1 µg/mL (≈ 0.216 µM)
Pr. rettgeri; Pr-5 A20915, MHA, Table 3
  MIC: 0.8 µg/mL (≈ 1.73 µM)
Pr. rettgeri; Pr-6 A20920, MHA, Table 3
  MIC: 0.2 µg/mL (≈ 0.432 µM)
Sal. enteritidis; A9531, MHA, Table 1
  MIC: 0.1 µg/mL (≈ 0.216 µM)
Sal. enteritidis; MHA, Example 10
  MIC: 0.05 µg/mL (≈ 0.108 µM)
Sal. enteritidis; Se-1 A9531, MHA, Table 3
  MIC: 0.2 µg/mL (≈ 0.432 µM)
D. pneumoniae; Dp-2 Type I Neufeld, MHA, Table 2
  MIC: 0.2 µg/mL (≈ 0.432 µM)
D. pneumoniae; Dp-3 Type III, MHA, Table 2
  MIC: 0.2 µg/mL (≈ 0.432 µM)
D. pneumoniae; Dp-4 A9585, MHA, Table 2
  MIC: 0.2 µg/mL (≈ 0.432 µM)
D. pneumoniae; Dp-5 A15069, MHA, Table 2
  MIC: 0.2 µg/mL (≈ 0.432 µM)
D. pneumoniae; Dp-6 A20167, MHA, Table 2
  MIC: 0.2 µg/mL (≈ 0.432 µM)
D. pneumoniae; Dp-7 A20759, MHA, Table 2
  MIC: 0.2 µg/mL (≈ 0.432 µM)
D. pneumoniae; Dp-8 A20769, MHA, Table 2
  MIC: 0.2 µg/mL (≈ 0.432 µM)
D. pneumoniae; Dp-9 A20770, MHA, Table 2
  MIC: 0.2 µg/mL (≈ 0.432 µM)
D. pneumoniae; Streptococcus pneumoniae
  MIC: 0.2 µg/mL (≈ 0.432 µM)
P. stuartii; Ps-1 A20745, HIA, Table 4
  MIC: 6.3 µg/mL (≈ 13.6 µM)
P. stuartii; Ps-1 A20745, MHA, Table 3
  MIC: 0.8 µg/mL (≈ 1.73 µM)
P. stuartii; Ps-1 A20745, MHA, Table 4
  MIC: 1.6 µg/mL (≈ 3.46 µM)
P. stuartii; Ps-1 A20745, NA, Table 4
  MIC: 6.3 µg/mL (≈ 13.6 µM)
P. stuartii; Ps-2 A20894, HIA, Table 4
  MIC: 0.4 µg/mL (≈ 0.865 µM)
P. stuartii; Ps-2 A20894, MHA, Table 3
  MIC: 0.8 µg/mL (≈ 1.73 µM)
P. stuartii; Ps-2 A20894, MHA, Table 4
  MIC: 0.2 µg/mL (≈ 0.432 µM)
P. stuartii; Ps-2 A20894, NA, Table 4
  MIC: 0.4 µg/mL (≈ 0.865 µM)
P. stuartii; Ps-3 A20911 (β-lactamase), HIA, Table 4
  MIC: 6.3 µg/mL (≈ 13.6 µM)
P. stuartii; Ps-3 A20911 (β-lactamase), MHA, Table 4
  MIC: 3.1 µg/mL (≈ 6.7 µM)
P. stuartii; Ps-3 A20911 (β-lactamase), NA, Table 4
  MIC: 6.3 µg/mL (≈ 13.6 µM)
P. stuartii; Ps-3 A20911, MHA, Table 3
  MIC: 0.8 µg/mL (≈ 1.73 µM)
P. stuartii; Ps-4 A21051, MHA, Table 3
  MIC: 25 µg/mL (≈ 54.1 µM)
P. stuartii; Ps-5 A21057, MHA, Table 3
  MIC: 0.8 µg/mL (≈ 1.73 µM)
S. paratyphi
  MIC: 0.2 µg/mL (≈ 0.432 µM)

From patent US4112228A, “7-(D-α-Hydroxy-2-arylacetamido)-3-(2-carboxyalkyl-2,3-dihydro-s-tri azolo-[4,3-b]pyridazin-3-on-6-ylthiomethyl)-3-cephem-4-carboxylic acids and derivatives” (priority 1977, dated 1978)
